In patent US5861400A, “Pharmaceutical compounds” (Xenova Limited, priority 1994, dated 1999):
Counter-ions that a name gives are not always drawn.

What was measured:
[1] = Kamei et al, J. Antibiotics vol XLIII No. 8, 1018-1020; cited from earlier work
[2] = test system: AR 1.0 cells; assay: Proliferation/toxicity assay, compound alone and with cytotoxic agent (sulphorhodamine B); type: cell-based, mouse
[3] = test system: AR 1.0 cells; assay: Drug accumulation assay (tritiated daunorubicin, AR 1.0 cells); type: cell-based, mouse; details: for Emax: 100% = accumulation with 100 μM Verapamil, compounds 100 nM to 100 μM, read-out: MAX accumulation (% 100 μm VRP); for IC50: daunorubicin accumulation, 37° C., DNR 2 μM
Procedure: (§1) The EMT6 mouse mammary carcinoma cell line and the MDR resistant subline AR 1.0 were cultured in RPMI 1640 medium containing 10% foetal calf serum and 2mM glutamine at 37° C. in 5% CO2. Cells were passaged between 1 in 200 and 1 in 2000 in the case of the parental cell line and between 1 in 20 and 1 in 200 in the case of the MDR resistant subline, after trypsinisation (0.25% trypsin, 0.2 gl^-1, EDTA).
1. Drug accumulation assay
AR 1.0 cells were seeded into 96 well opaque culture plates (Canberra Packard). The assay medium contained a mixture of tritiated Daunorubicin (DNR), a cytotoxic agent, and unlabelled DNR (0.25μ Ci/ml; 2 μM). Compounds of formula A were serially diluted in assay medium over a range of concentrations from 100 nM to 100 μM. The cells were incubated at 37° C. for 1 hr before washing and counting of cell associated radioactivity. Each assay included a titration of the known resistance modifying agent Verapamil as positive control. Results were expressed as % maximum accumulation where 100% accumulation is that observed in the presence of 100 μM Verapamil.

[4] = test system: AR 1.0 cells; assay: Potentiation of Doxorubicin toxicity (potentiation index, AR 1.0 cells); type: cell-based, mouse; details: doxorubicin 0.5 nM-50 μM, four days; for Potentiation Index (at 5 μM): Conc Comp 5 μM; for Potentiation Index: Conc Comp 3 μM
Procedure: as §1
2. Potentiation of Doxorubicin toxicity
Compounds of formula A were examined for their ability to potentiate the toxicity of doxorubicin in AR 1.0 cells. In initial proliferation assays compounds were titrated against a fixed concentration of doxorubicin (0.5-1 μM) which alone is non-toxic to AR 1.0 cells. Incubations with doxorubicin were over a four day period before quantitation of proliferation using the calorimetric sulphorhodamine B assay (Skehan et al; J. Natl. Cancer Inst. 82 pp 1107-1112 (1990)).
Cells were cultured for four days with concentrations of doxorubicin over the range of 0.5 nM-50 μM in the presence of Verapramil at its maximum subtoxic level determined from previous experiments. Proliferation was quantified as described by Skehan et al, loc cit. The IC50 (concentration required to reduce proliferation to 50% of the untreated controls) for doxorubicin alone and with the Verapamil were derived and used to calculate the potentiation index (PI): […]

[5] = test system: MDR cells; details: in vitro and in vivo; Cancer Res., 41, 1967-1972 (1981); cited from earlier work
[6] = Mus musculus, compound alone, read-out: COMPOUND TOXICITY (IC50 μM)
[7] = cytotoxic agent (doxorubicin) 1.00 μg/ml, 5760 min, read-out: TOXICITY WITH CYTOTOXIC AGENT (IC 50 μM)
[8] = cytotoxic agent (doxorubicin) 0.50 μg/ml, 5760 min, read-out: TOXICITY WITH CYTOTOXIC AGENT (IC 50 μM)
[9] = compound alone, read-out: COMPOUND TOXICITY (IC50 μM)

IC50 ([3]; Mus musculus, 1 h) [µM] | Compound | IC50 [2, 6] [µM] | Potentiation Index (at 5 μM) [4] | IC50 [2, 8] [µM] | also measured
20 | O=c1[nH]/c(=C\c2ccncc2)c(=O)n(Cc2ccccc2)/c1=C\c1ccccc1 [Compound 1839, (3Z,6Z)-1-Benzyl-6-benzylidene-3-(4-pyridyl)methylene-2,5-piperazinedione] | – | – | 1.5 | IC50 [2, 9]: 30 µM; Potentiation Index [4]: 15
7 | COc1ccc(/C=c2/c(=O)n(Cc3ccccc3)/c(=C\c3ccoc3)c(=O)n2C)cc1 [Compound 1880, (3Z,6Z)-4-Benzyl-3-(3-furylmethylene)-6-(4-methoxybenzylidene)-1-methyl-2,5-piperazinedione] | 10 | – | – | –
12 | Cn1c(=O)/c(=C/c2c[nH]c3ccccc23)n(C)c(=O)/c1=C/c1ccccc1 [Compound 1896, (3Z,6Z)-3-Benzylidene-6-(3-indoly)methylene-1,4-dimethyl-2,5-piperazinedione] | 30 | – | 4 | –
3 | Cn1c(=O)/c(=C/c2cn(CN3C(=O)c4ccccc4C3=O)c3ccccc23)n(C)c(=O)/c1=C/c1ccccc1 [Compound 1897] | 50 | 75 | 1.5 | –
10 | Cn1c(=O)/c(=C/c2cn(C(=O)OCc3ccccc3)c3ccccc23)n(C)c(=O)/c1=C/c1ccccc1 [Compound 1940, (3Z,6Z)-3-Benzylidene-6-(1-benzyloxycarbonyl-3-indolyl)methylene-1,4-dimethyl-2,5-piperazinedione] | 7 | 14 | – | –
10 | Cn1c(=O)/c(=C/c2cn(CCCN3C(=O)c4ccccc4C3=O)c3ccccc23)n(C)c(=O)/c1=C/c1ccccc1 [Compound 1943, (3Z,6Z)-3-Benzylidene-1,4-dimethyl-6-(3-(1-(3-phthalimido)propyl)indolyl)methylene-2,5-piperazinedione] | 60 | 20 | 0.2 | –

Continued, compound first:

Compound | IC50 ([3]; Mus musculus, 1 h) [µM] | IC50 [2, 6] [µM] | Potentiation Index (at 5 μM) [4] | IC50 [2, 8] [µM] | also measured
O=c1[nH]/c(=C\c2ccccc2)c(=O)[nH]/c1=C\c1ccccc1 [B] | – | – | – | – | potentiation of the cytotoxicity of vincristine [1]: have utility as potentiators of the cytotoxicity of vincristine
COc1ccc(/C=c2\[nH]c(=O)/c(=C/c3cccs3)n(C)c2=O)cc1 [Compound 1597, (3Z,6Z)-3-(4-Methoxybenzylidene)-1-methyl-6-(2-thienylmethylene)-2,5-piperazinedione] | 50 | 25 | – | – | IC50 [2, 7]: 6 µM; Emax ([3]; Mus musculus, 1 hr): 59.1%
Cn1c(=O)/c(=C/c2cn(C(=O)OC(C)(C)C)c3ccccc23)n(C)c(=O)/c1=C/c1ccccc1 [Compound 1800, (3Z,6Z)-3-Benzylidene-1,4-dimethyl-6-(1-tert-butoxycarbonyl-3-indolyl)methylene-2,5-piperazinedione] | 7 | 10 | 40 | – | IC50 [2, 7]: 0.8 µM
Cn1c(=O)/c(=C/c2cn(C(=O)OC(C)(C)C)c3ccccc23)n(C)c(=O)/c1=C/c1cccs1 [Compound 1834, (3Z,6Z)-1,4-Dimethyl-3-(1-tert-butoxycarbonyl-3-indolyl)methylene-6-(2-thenylidene)-2,5-piperazinedione] | 5 | 10 | – | 0.8 | Potentiation Index [4]: 30
O=c1[nH]/c(=C\c2ccncc2)c(=O)n(Cc2ccccc2)/c1=C\c1ccccc1 [Compound 1840, (3Z,6Z)-1-Benzyl-6-benzylidene-3-(4-pyridyl)methylene-2,5-hydrochloride] | – | – | – | 1 | IC50 [2, 9]: 5 µM; IC50 ([3]; 1 hr): 12 µM
Cn1c(=O)/c(=C/C2CCCCC2)n(C)c(=O)/c1=C/c1ccccc1 [Compound 1871, (3Z,6Z)-3-Benzylidene-6-cyclohexylmethylene-1,4-dimethyl-2,5-piperazinedione] | 6 | 40 | 20 | 1 | –
Cn1c(=O)/c(=C/c2cn(C(=O)OC(C)(C)C)c3ccccc23)n(C)c(=O)/c1=C/c1c(Cl)cccc1Cl [Compound 1873, (3Z,6Z)-6-(2,6-dichlorobenzylidene)-3-(1-tertbutoxycarbonyl-3-indolyl)methylene-1,4-dimethyl-2,5-piperazinedione] | 5 | 8 | – | – | Emax ([3]; Mus musculus, 1 hr): 56%
COc1ccc(/C=c2/c(=O)n(Cc3ccccc3)/c(=C\c3cn(C(=O)OC(C)(C)C)c4ccccc34)c(=O)n2C)cc1 [Compound 1874, (3Z,6Z)-4-benzyl-3-(1-tertbutoxycarbonyl-3-indolyl)methylene-6-(4-methoxybenzylidene)-1-methyl-2,5-piperazinedione] | 10 | – | 20 | – | –
Cn1c(=O)/c(=C/c2cn(C(=O)OC(C)(C)C)c3ccccc23)n(C)c(=O)/c1=C/c1ccoc1 [Compound 1875, (3Z,6Z)-6-(3-furylmethylene)-6-(1-tertbutoxycarbonyl-3-indolyl)methylene-1,4-dimethyl-2,5-piperazinedione] | 5 | 10 | – | 0.8 | –
COc1ccc(CCN(C)CCCC(C#N)(c2ccc(OC)c(OC)c2)C(C)C)cc1OC (stereo not shown) [Verapamil] | – | – | – | – | sensitisation of MDR cells to vinca alkaloids [5]: shown to sensitise MDR cells to vinca alkaloids in vitro and in vivo
